# Measured values from patent publication US20260285831A1, “LACTAM DERIVATIVES FOR INHIBITING NLRP3 AND USES THEREOF” (Ventus Therapeutics U.S., Inc., priority 2023, published 2026).
# Like-named read-outs stand apart in the source and are kept apart here.
# Target: T1, human NLRP3 (Homo sapiens, UniProt Q96P20)
# T1 construct: Human whole blood is drawn from healthy volunteers after obtaining written informed consent; from tissue; host or cells: human whole blood from healthy volunteers (heparin lithium tubes)
# T1 sequence (Q96P20 whole entry): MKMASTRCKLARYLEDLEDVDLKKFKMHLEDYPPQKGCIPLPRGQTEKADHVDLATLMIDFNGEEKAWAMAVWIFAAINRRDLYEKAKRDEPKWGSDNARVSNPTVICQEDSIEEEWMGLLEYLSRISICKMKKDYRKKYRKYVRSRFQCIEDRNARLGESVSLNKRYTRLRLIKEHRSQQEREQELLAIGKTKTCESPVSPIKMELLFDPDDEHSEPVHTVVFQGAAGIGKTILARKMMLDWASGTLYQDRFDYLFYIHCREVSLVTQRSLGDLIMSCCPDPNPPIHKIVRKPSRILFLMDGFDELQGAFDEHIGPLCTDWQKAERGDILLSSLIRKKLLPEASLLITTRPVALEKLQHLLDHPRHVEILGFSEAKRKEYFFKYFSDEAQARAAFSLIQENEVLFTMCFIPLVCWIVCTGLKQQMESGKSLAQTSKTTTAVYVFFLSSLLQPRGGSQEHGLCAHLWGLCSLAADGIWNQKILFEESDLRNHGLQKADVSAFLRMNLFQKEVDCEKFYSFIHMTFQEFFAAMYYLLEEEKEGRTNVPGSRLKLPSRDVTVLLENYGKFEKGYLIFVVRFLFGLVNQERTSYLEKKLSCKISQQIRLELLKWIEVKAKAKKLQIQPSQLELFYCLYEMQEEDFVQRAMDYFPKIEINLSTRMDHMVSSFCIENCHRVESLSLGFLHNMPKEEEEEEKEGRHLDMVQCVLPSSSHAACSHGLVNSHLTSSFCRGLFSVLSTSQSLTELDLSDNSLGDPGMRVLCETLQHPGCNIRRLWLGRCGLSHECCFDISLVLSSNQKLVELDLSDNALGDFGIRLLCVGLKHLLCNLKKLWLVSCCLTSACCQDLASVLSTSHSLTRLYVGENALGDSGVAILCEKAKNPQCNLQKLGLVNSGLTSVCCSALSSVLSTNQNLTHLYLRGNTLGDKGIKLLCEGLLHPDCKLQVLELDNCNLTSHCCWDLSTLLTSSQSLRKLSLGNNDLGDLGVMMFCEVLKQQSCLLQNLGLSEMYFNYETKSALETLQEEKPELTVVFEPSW
# Test: Human whole blood (hWB) NLRP3 assay (IL-1β release after LPS priming and ATP activation)
# Assay type: cell-based
# Conditions: for IC50: human whole blood; for fold improvement in activity compared to Compound 3 (hWB IL-1β IC50): additional ring N atom versus Compound 3 with lactam ring N as sole N ring atom, Table E; for hWB NLRP3 inhibitory activity compared to the (S)-isomer: isomer comparison, in words
# Experimental: Human Whole Blood (hWB) NLRP3 Assay
# Human whole blood is drawn from healthy volunteers after obtaining written informed consent. Heparin lithium coated tubes are used to collect blood from volunteers. Blood samples are distributed on 96 well plates using 90 μl per well.
# Priming procedure: Priming is performed by adding 5 μl of LPS (026:B6; Sigma L-2654) at a final concentration of 1 μg/ml for 4.5 hours in a humidified incubator with 37° C., 5% CO2. Thirty minutes prior to NLRP3 activation, 5 μl of a 20× compound solution or vehicle (2% dimethylsulfoxide (DMSO)) is added to each well and plates were incubated on a shaker (450 rpm) in a humidified incubator with 37° C., 5% CO2.
# Alternative priming procedure: Thirty minutes prior to LPS priming, 5 μl of a 20× compound solution or vehicle (2% dimethylsulfoxide (DMSO)) is added to each well and plates were incubated on a shaker (450 rpm) in a humidified incubator with 37° C., 5% CO2. Priming is performed by adding 5 μl of LPS (026:B6; Sigma L-2654) at a final concentration of 1 μg/ml for 5 hours in a humidified incubator with 37° C., 5% CO2.
# Activation is then performed by adding 3.3 μl of a 31×ATP solution per well. At the end of the 30 minutes stimulation, the plates are centrifuged (800 g, 10 min, room temperature) and the plasma from each well is frozen at −80° C. […] levels in the supernatant were analyzed using a mesoscale discovery assay (MSD K151TUK) according to the manufacturers' instructions.
# There is no detectable difference in assay IC50 results using the priming procedure versus the alternative priming procedure.
# Data provided in Table C, below. hWB […] Assay: A represents an IC50 value <0.3 μM; B represents an IC50 value ≥0.3 μM and <0.5 μM; C represents an IC50 value ≥0.5 μM and <1.0 μM; D represents an IC50 value ≥1.0 μM and <10 μM; E represents an IC50 value ≥10 μM. Dashed (--) lines indicate no data available.
# [1] = LPS 1 μg/ml priming, ATP activation, Table C, class symbols, read-out: hWB IL-1β IC50
# [2] = numeric values of Tables D and E, read-out: hWB IL-1β IC50
Compound,IC50 [1] [nM],also measured
"CC1(C)C(=O)N([C@@H]2CCN(CCCC(=O)O)C2=O)c2c(F)cc(C3CC3)c(F)c21 [Compound 16A, (R)-4-(3-(5-cyclopropyl-4,7-difluoro-3,3-dimethyl-2-oxoindolin-1-yl)-2-oxopyrrolidin-1-yl)butanoic acid]",< 300,–
"CC1(C)C(=O)N(c2cc(-c3ccccc3)cn(CCCC(=O)O)c2=O)c2c(F)cc(C3CC3)c(F)c21 [Compound 13, 4-(3-(5-cyclopropyl-4,7-difluoro-3,3-dimethyl-2-oxoindolin-1-yl)-2-oxo-5-phenylpyridin-1(2H)-yl)butanoic acid]",≥ 10000,–
"C[C@@H](CCC(=O)O)N1CC[C@@H](N2C(=O)C(C)(C)c3c(F)c(C4CC4)cc(F)c32)C1=O (single isomer, unassigned) [Compound 24A*]",300 to 500,–
"CC1(C)C(=O)N([C@@H]2CCN(CCCC(=O)O)C2=O)c2c(F)cc(C3CC3)cc21 (stereo in doubt) [Compound 22A*, (R)-4-(3-(5-cyclopropyl-7-fluoro-3,3-dimethyl-2-oxoindolin-1-yl)-2-oxopyrrolidin-1-yl)butanoic acid]",< 300,hWB NLRP3 inhibitory activity compared to the (S)-isomer: more active isomer
"C[C@@H](CCC(=O)O)N1CC[C@H](N2C(=O)C(C)(C)c3c(F)c(C4CC4)cc(F)c32)C1=O (single isomer, unassigned) [Compound 24C*]",≥ 10000,–
"CC1(C)C(=O)N([C@@H]2CC(C)(C)N(CCCC(=O)O)C2=O)c2c(F)cc(C3CC3)c(F)c21 (single isomer, unassigned) [Compound 25A]",≥ 10000,–
"CC1(C)C(=O)N(c2nccn([C@@H]3CCC[C@H]3CC(=O)O)c2=O)c2c(F)cc(C3CC3)c(F)c21 (single isomer, unassigned) [Compound 20D*]",500 to 1000,–
"CC1(C)C(=O)N([C@H]2CCN(CCCC(=O)O)C2=O)c2ccc(C3CC3)c(F)c21 (stereo in doubt) [Compound 18B*, (S)-4-(3-(5-cyclopropyl-4-fluoro-3,3-dimethyl-2-oxoindolin-1-yl)-2-oxopyrrolidin-1-yl)butanoic acid]",≥ 10000,"IC50 (class symbol printed beside the numeric value in Tables D and E, read-out: hWB IL-1β IC50 activity class): ≥ 10000 nM; IC50 [2]: > 500000 nM"
"CC1(C)C(=O)N([C@H]2CC(C)(C)N(CCCC(=O)O)C2=O)c2c(F)cc(C3CC3)c(F)c21 (single isomer, unassigned) [Compound 25B]",≥ 10000,–
"CC1(C)C(=O)N(c2cccn(CCCC(=O)O)c2=O)c2c(O)cc(Cl)cc21 [Compound 7, 4-(3-(5-chloro-7-hydroxy-3,3-dimethyl-2-oxoindolin-1-yl)-2-oxopyridin-1(2H)-yl)butanoic acid]",1000 to 10000,–
"C[C@@H](CC(=O)O)CN1CC[C@@H](N2C(=O)C(C)(C)c3c(F)c(C4CC4)cc(F)c32)C1=O (single isomer, unassigned) [Compound 26A*]",300 to 500,–
"C[C@H](CC(=O)O)CN1CC[C@H](N2C(=O)C(C)(C)c3c(F)c(C4CC4)cc(F)c32)C1=O (single isomer, unassigned) [Compound 26D*]",≥ 10000,–
"CC1(C)C(=O)N(c2cccn(CCCC(=O)O)c2=O)c2c(F)cc(C3CC3)cc21 [Compound 2, 4-(3-(5-cyclopropyl-7-fluoro-3,3-dimethyl-2-oxoindolin-1-yl)-2-oxopyridin-1(2H)-yl)butanoic acid]",1000 to 10000,–
"C[C@H](CCC(=O)O)N1CC[C@@H](N2C(=O)C(C)(C)c3c(F)c(C4CC4)cc(F)c32)C1=O (single isomer, unassigned) [Compound 24D*]",1000 to 10000,–
"CC1(C)C(=O)N([C@H]2CCN(CCCC(=O)O)C2=O)c2c(F)cc(C3CC3)c(F)c21 [Compound 16B, (S)-4-(3-(5-cyclopropyl-4,7-difluoro-3,3-dimethyl-2-oxoindolin-1-yl)-2-oxopyrrolidin-1-yl)butanoic acid]",1000 to 10000,–

# More lines, main results first:
IC50 [1] [nM],Compound,also measured
≥ 10000,"CC1(C)C(=O)N(c2c(=O)n(CCCC(=O)O)cc3ccccc23)c2c(F)cc(C3CC3)c(F)c21 [Compound 15, 4-(4-(5-cyclopropyl-4,7-difluoro-3,3-dimethyl-2-oxoindolin-1-yl)-3-oxoisoquinolin-2(3H)-yl)butanoic acid]",–
1000 to 10000,"CC1(C)C(=O)N(c2cc(C(F)(F)F)cn(CCCC(=O)O)c2=O)c2c(F)cc(C3CC3)c(F)c21 [Compound 12, 4-(3-(5-cyclopropyl-4,7-difluoro-3,3-dimethyl-2-oxoindolin-1-yl)-2-oxo-5-(trifluoromethyl)pyridin-1(2H)-yl)butanoic acid]",–
300 to 500,"CC1(C)C(=O)N(c2cncn(CCCC(=O)O)c2=O)c2c(F)cc(C3CC3)c(F)c21 [Compound 8, 4-(5-(5-cyclopropyl-4,7-difluoro-3,3-dimethyl-2-oxoindolin-1-yl)-6-oxopyrimidin-1(6H)-yl)butanoic acid]",fold improvement in activity compared to Compound 3 (hWB IL-1β IC50): 3-5 fold; IC50 [2]: 470 nM
1000 to 10000,"CC1(C)C(=O)N(c2cccn(CCCC(=O)O)c2=O)c2c(F)cc(Br)cc21 [Compound 1, 4-(3-(5-bromo-7-fluoro-3,3-dimethyl-2-oxoindolin-1-yl)-2-oxopyridin-1(2H)-yl)butanoic acid]",–
1000 to 10000,"Cc1cc(N2C(=O)C(C)(C)c3c(F)c(C4CC4)cc(F)c32)c(=O)n(CCCC(=O)O)c1 [Compound 5, 4-(3-(5-cyclopropyl-4,7-difluoro-3,3-dimethyl-2-oxoindolin-1-yl)-5-methyl-2-oxopyridin-1(2H)-yl)butanoic acid]",–
1000 to 10000,"CC1(C)C(=O)N(c2cc(C3CC3)cn(CCCC(=O)O)c2=O)c2c(F)cc(C3CC3)c(F)c21 [Compound 14, 4-(5-cyclopropyl-3-(5-cyclopropyl-4,7-difluoro-3,3-dimethyl-2-oxoindolin-1-yl)-2-oxopyridin-1(2H)-yl)butanoic acid]",–
1000 to 10000,"CC1(C)C(=O)N(c2nccn(CCCC(=O)O)c2=O)c2ccc(C3CC3)c(F)c21 [Compound 21, 4-(3-(5-cyclopropyl-4-fluoro-3,3-dimethyl-2-oxoindolin-1-yl)-2-oxopyrazin-1(2H)-yl)butanoic acid]",–
1000 to 10000,"CC1(C)C(=O)N(c2cccn(CCCC(=O)O)c2=O)c2c(F)cc(C3CC3)c(F)c21 [Compound 3, 4-(3-(5-cyclopropyl-4,7-difluoro-3,3-dimethyl-2-oxoindolin-1-yl)-2-oxopyridin-1(2H)-yl)butanoic acid]",IC50 [2]: 1900 nM
500 to 1000,"CC1(C)C(=O)N(c2nccn(CCCC(=O)O)c2=O)c2c(F)cc(C(F)(F)F)c(F)c21 [Compound 17, 4-(3-(4,7-difluoro-3,3-dimethyl-2-oxo-5-(trifluoromethyl)indolin-1-yl)-2-oxopyrazin-1(2H)-yl)butanoic acid]",–
≥ 10000,"Cc1ccn(CCCC(=O)O)c(=O)c1N1C(=O)C(C)(C)c2c(F)c(C3CC3)cc(F)c21 (single isomer, unassigned) [Compound 4A*, (Sa)-4-(3-(5-cyclopropyl-4,7-difluoro-3,3-dimethyl-2-oxoindolin-1-yl)-4-methyl-2-oxopyridin-1(2H)-yl)butanoic acid]",–
500 to 1000,"CC1(C)C(=O)N(c2ccnn(CCCC(=O)O)c2=O)c2c(F)cc(C3CC3)c(F)c21 [Compound 11, 4-(5-(5-cyclopropyl-4,7-difluoro-3,3-dimethyl-2-oxoindolin-1-yl)-6-oxopyridazin-1(6H)-yl)butanoic acid]",fold improvement in activity compared to Compound 3 (hWB IL-1β IC50): 3-5 fold; IC50 [2]: 610 nM
300 to 500,"CC1(C)C(=O)N(c2nccn(CCCC(=O)O)c2=O)c2c(F)cc(C3CC3)c(F)c21 [Compound 10, 4-(3-(5-cyclopropyl-4,7-difluoro-3,3-dimethyl-2-oxoindolin-1-yl)-2-oxopyrazin-1(2H)-yl)butanoic acid]",fold improvement in activity compared to Compound 3 (hWB IL-1β IC50): 3-5 fold; IC50 [2]: 390 nM
1000 to 10000,"Cc1ccc(N2C(=O)C(C)(C)c3c(F)c(C4CC4)cc(F)c32)c(=O)n1CCCC(=O)O [Compound 6, 4-(3-(5-cyclopropyl-4,7-difluoro-3,3-dimethyl-2-oxoindolin-1-yl)-6-methyl-2-oxopyridin-1(2H)-yl)butanoic acid]",–
< 300,"CC1(C)C(=O)N([C@@H]2CCN(CCCC(=O)O)C2=O)c2c(F)cc(C(F)(F)F)c(F)c21 (stereo in doubt) [Compound 19A*, (R)-4-(3-(4,7-difluoro-3,3-dimethyl-2-oxo-5-(trifluoromethyl)indolin-1-yl)-2-oxopyrrolidin-1-yl)butanoic acid]",hWB NLRP3 inhibitory activity compared to the (S)-isomer: more active isomer
